Experimental data as given in PMC3969763 (Molecular biology reports, 2014).

Target: T1, β2-chimaerin (Homo sapiens, UniProt P52757)
T1 sequence (P52757 1-468): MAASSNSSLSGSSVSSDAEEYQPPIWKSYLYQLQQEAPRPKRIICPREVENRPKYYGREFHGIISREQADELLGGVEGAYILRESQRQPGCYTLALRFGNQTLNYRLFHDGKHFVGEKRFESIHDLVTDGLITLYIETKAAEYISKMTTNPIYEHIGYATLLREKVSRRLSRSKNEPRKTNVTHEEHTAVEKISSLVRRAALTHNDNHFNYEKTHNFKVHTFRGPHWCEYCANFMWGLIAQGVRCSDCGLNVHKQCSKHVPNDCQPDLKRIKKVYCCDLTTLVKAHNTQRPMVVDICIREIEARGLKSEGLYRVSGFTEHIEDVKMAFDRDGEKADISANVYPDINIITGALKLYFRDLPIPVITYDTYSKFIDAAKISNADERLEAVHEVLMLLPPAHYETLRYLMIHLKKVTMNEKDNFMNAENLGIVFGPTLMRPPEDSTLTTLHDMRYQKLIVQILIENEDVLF
Format: cell-based

`CCCCCCCCCCCCCC(=O)O[C@@H]1[C@@H](C)[C@@]2(O)[C@@H](C=C(CO)C[C@]3(O)C(=O)C(C)=C[C@@H]23)[C@@H]2C(C)(C)[C@]12OC(C)=O` [Phorbol 12-myristate 13-acetate] gave an EC50 of 1202 ± 1 nM.
